Our source for the IC50 values is patent US8778941B2, “TRPM8 antagonists and their use in treatments” (AMGEN Inc., priority 2011, dated 2014).

The structures appear in SMILES notation.

The target in this assay is T1, human TRPM8 (Homo sapiens, UniProt Q7Z2W7).
T1 construct: expressed in transfected cells; host or cells: Chinese hamster ovary (CHO) cells, T-REx tetracycline-inducible expression system (Invitrogen), co-transfected with pcDNA3.1 jellyfish aequorin
Briefly: Luminescence readout assay for measuring intracellular calcium (aequorin), hTRPM8 antagonism. In kind it is cell-based. The settings on record: CHO cell line expressing human TRPM8 and aequorin; activation by icilin, L-menthol or cold buffer (table does not say which).

T1 sequence (Q7Z2W7 whole entry): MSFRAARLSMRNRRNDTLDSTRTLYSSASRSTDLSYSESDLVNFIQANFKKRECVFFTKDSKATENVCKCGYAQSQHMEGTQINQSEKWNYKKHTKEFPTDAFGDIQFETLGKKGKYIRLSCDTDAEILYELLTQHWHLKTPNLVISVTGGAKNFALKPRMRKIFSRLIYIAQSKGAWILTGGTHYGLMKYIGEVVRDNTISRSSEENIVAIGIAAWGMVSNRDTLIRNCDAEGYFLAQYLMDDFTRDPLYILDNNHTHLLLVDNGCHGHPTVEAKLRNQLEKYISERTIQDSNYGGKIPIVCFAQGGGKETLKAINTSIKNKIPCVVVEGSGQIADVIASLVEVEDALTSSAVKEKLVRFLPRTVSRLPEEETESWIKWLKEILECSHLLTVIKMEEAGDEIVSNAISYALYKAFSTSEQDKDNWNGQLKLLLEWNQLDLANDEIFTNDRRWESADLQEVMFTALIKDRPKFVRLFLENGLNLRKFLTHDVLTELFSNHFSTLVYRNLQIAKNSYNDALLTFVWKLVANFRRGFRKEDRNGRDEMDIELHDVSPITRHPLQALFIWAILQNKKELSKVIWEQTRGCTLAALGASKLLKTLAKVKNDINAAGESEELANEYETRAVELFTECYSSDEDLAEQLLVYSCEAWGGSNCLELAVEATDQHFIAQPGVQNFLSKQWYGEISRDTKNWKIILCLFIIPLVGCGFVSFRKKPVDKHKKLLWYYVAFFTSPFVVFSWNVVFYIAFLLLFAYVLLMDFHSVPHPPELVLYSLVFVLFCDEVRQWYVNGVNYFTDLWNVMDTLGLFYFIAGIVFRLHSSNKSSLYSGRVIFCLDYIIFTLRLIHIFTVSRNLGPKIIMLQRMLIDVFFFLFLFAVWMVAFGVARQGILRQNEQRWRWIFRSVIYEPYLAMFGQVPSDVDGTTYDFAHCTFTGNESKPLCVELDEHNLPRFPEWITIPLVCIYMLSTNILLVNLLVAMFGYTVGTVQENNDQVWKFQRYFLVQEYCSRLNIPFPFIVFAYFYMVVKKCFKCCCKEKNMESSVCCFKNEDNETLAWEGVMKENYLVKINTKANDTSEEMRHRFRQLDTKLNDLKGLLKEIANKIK

As for `N#Cc1cccc(NC(=O)N[C@@H](c2ccc(C(F)(F)F)cc2)c2ncccc2C(F)(F)F)c1` [Example 97, (S)-1-(3-cyanophenyl)-3-((4-(trifluoro-methyl)-phenyl)(3-(trifluoro-methyl)-pyridin-2-yl)-methyl)urea (2,2,2-trifluoro-acetate)], the IC50 (in general, the point on the concentration scale where inhibition reaches its midpoint) stood at 80 nM.
For the compound `CCOC(=O)C(NC(=O)N[C@@H](c1ccc(C(F)(F)F)cc1)c1ncccc1C(F)(F)F)C(C)C` (stereo partly drawn) [Example 98, ethyl 3-methyl-2-(3-((S)-(4-(trifluoro-methyl)-phenyl)(3-(trifluoro-methyl)-pyridin-2-yl)-methyl)-ureido)-butanoate (2,2,2-trifluoro-acetate)], the concentration for half-maximal inhibition (IC50) turned out to be 2220 nM.
In the case of `CC[C@H](C)C(NC(=O)N[C@@H](c1ccc(C(F)(F)F)cc1)c1ncccc1C(F)(F)F)C(=O)OC` (stereo partly drawn) [Example 99, (3S)-methyl 3-methyl-2-(3-((S)-(4-(trifluoro-methyl)-phenyl)(3-(trifluoro-methyl)-pyridin-2-yl)-methyl)-ureido)-pentanoate (2,2,2-trifluoro-acetate)], the IC50 turned out to be 712 nM.
For `O=C(Nc1cccc([N+](=O)[O-])c1)N[C@@H](c1ccc(C(F)(F)F)cc1)c1ncccc1C(F)(F)F` [Example 100, (S)-1-(3-nitrophenyl)-3-((4-(trifluoro-methyl)-phenyl)(3-(trifluoro-methyl)-pyridin-2-yl)-methyl)urea (2,2,2-trifluoro-acetate)], the IC50 was found to be 142 nM.
With `CC(NC(=O)N[C@@H](c1ccc(C(F)(F)F)cc1)c1ncccc1C(F)(F)F)c1ccc(Br)cc1` (stereo partly drawn) [Example 101, 1-(1-(4-bromophenyl)-ethyl)-3-((S)-(4-(trifluoro-methyl)-phenyl)(3-(trifluoro-methyl)-pyridin-2-yl)-methyl)urea (2,2,2-trifluoro-acetate)], the IC50 stood at 633 nM.
As for `COC(=O)c1cccc(NC(=O)N[C@@H](c2ccc(C(F)(F)F)cc2)c2ncccc2C(F)(F)F)c1` [Example 102, (S)-methyl 3-(3-((4-(trifluoro-methyl)-phenyl)(3-(trifluoro-methyl)-pyridin-2-yl)-methyl)-ureido)-benzoate (2,2,2-trifluoro-acetate)], the half-maximal inhibitory concentration (IC50) amounted to 262 nM.
As for `COC(=O)c1cc(NC(=O)N[C@@H](c2ccc(C(F)(F)F)cc2)c2ncccc2C(F)(F)F)cc(C(=O)OC)c1` [Example 103, (S)-dimethyl 5-(3-((4-(trifluoro-methyl)-phenyl)(3-(trifluoro-methyl)-pyridin-2-yl)-methyl)-ureido)-isophthalate (2,2,2-trifluoro-acetate)], the half-inhibitory concentration (IC50) was 527 nM.
`CCCCOC(=O)CNC(=O)N[C@@H](c1ccc(C(F)(F)F)cc1)c1ncccc1C(F)(F)F` [Example 104, (S)-butyl 2-(3-((4-(trifluoro-methyl)-phenyl)(3-(trifluoro-methyl)-pyridin-2-yl)-methyl)-ureido)acetate (2,2,2-trifluoro-acetate)]: the IC50 stood at 604 nM.
For the compound `C=C(C)c1cccc(C(C)(C)NC(=O)N[C@@H](c2ccc(C(F)(F)F)cc2)c2ncccc2C(F)(F)F)c1` [Example 105, (S)-1-(2-(3-(prop-1-en-2-yl)phenyl)-propan-2-yl)-3-((4-(trifluoro-methyl)-phenyl)(3-(trifluoro-methyl)-pyridin-2-yl)-methyl)urea (2,2,2-trifluoro-acetate)], the IC50 was found to be 545 nM.
Under `Cc1cc(C)cc(NC(=O)N[C@@H](c2ccc(C(F)(F)F)cc2)c2ncccc2C(F)(F)F)c1` [Example 106, (S)-1-(3,5-dimethylphenyl)-3-((4-(trifluoro-methyl)-phenyl)(3-(trifluoro-methyl)-pyridin-2-yl)-methyl)urea (2,2,2-trifluoro-acetate)] stands 494 nM; under `C[C@H](NC(=O)N[C@@H](c1ccc(C(F)(F)F)cc1)c1ncccc1C(F)(F)F)c1ccccc1` [Example 107, 1-((S)-1-phenylethyl)-3-((S)-(4-(trifluoro-methyl)-phenyl)(3-(trifluoro-methyl)-pyridin-2-yl)-methyl)urea (2,2,2-trifluoro-acetate)], 123 nM.
On to `Cc1ccc(C)c(NC(=O)N[C@@H](c2ccc(C(F)(F)F)cc2)c2ncccc2C(F)(F)F)c1` [Example 108], for which the IC50 turned out to be 829 nM.
For `O=C(NCc1ccccc1)N[C@@H](c1ccc(C(F)(F)F)cc1)c1ncccc1C(F)(F)F` [Example 109, (S)-1-benzyl-3-((4-(trifluoro-methyl)-phenyl)(3-(trifluoro-methyl)-pyridin-2-yl)-methyl)urea (2,2,2-trifluoro-acetate)], the IC50 turned out to be 110 nM.
Turning to `COc1ccc(OC)c(CCNC(=O)N[C@@H](c2ccc(C(F)(F)F)cc2)c2ncccc2C(F)(F)F)c1` [Example 110, (S)-1-(2,5-dimethoxy-phenethyl)-3-((4-(trifluoro-methyl)-phenyl)(3-(trifluoro-methyl)-pyridin-2-yl)-methyl)urea (2,2,2-trifluoro-acetate)], the IC50 is 190 nM.
The value for `COc1cc(CNC(=O)N[C@@H](c2ccc(C(F)(F)F)cc2)c2ncccc2C(F)(F)F)cc(OC)c1OC` [Example 111, (S)-1-((4-(trifluoro-methyl)-phenyl)(3-(trifluoro-methyl)-pyridin-2-yl)-methyl)-3-(3,4,5-trimethoxy-benzyl)urea (2,2,2-trifluoro-acetate)] was 2380 nM; that for `COc1cc(NC(=O)N[C@@H](c2ccc(C(F)(F)F)cc2)c2ncccc2C(F)(F)F)cc(OC)c1OC` [Example 112, (S)-1-((4-(trifluoro-methyl)-phenyl)(3-(trifluoro-methyl)-pyridin-2-yl)-methyl)-3-(3,4,5-trimethoxy-phenyl)urea (2,2,2-trifluoro-acetate)] was 287 nM; that for `O=C(Nc1cccs1)N[C@@H](c1ccc(C(F)(F)F)cc1)c1ncccc1C(F)(F)F` [Example 113, (S)-1-(thiophen-2-yl)-3-((4-(trifluoro-methyl)-phenyl)(3-(trifluoro-methyl)-pyridin-2-yl)-methyl)urea (2,2,2-trifluoro-acetate)] was 175 nM.
Under `O=C(Nc1cccnc1)NC(c1ccc(C(F)(F)F)cc1)c1cccnc1Br` (stereo not drawn) [Example 114, 1-((2-bromopyridin-3-yl)(4-(trifluoro-methyl)-phenyl)-methyl)-3-(pyridin-3-yl)-urea (2,2,2-trifluoro-acetate)] stands 886 nM; under `O=C(Nc1cccnc1)N[C@@H](c1ccc(C(F)(F)F)cc1)c1ccccc1Br` [Example 115, (S)-1-((2-bromophenyl) (4-(trifluoro-methyl)-phenyl)-methyl)-3-(pyridin-3-yl)-urea 2,2,2-trifluoro-acetate (2,2,2-trifluoro-acetate)], 154 nM.
The value for `CC(C)(C)NC(=O)N[C@@H](c1ccc(C(F)(F)F)cc1)c1ccccc1Br` [Example 116, (S)-1-((2-bromophenyl) (4-(trifluoro-methyl)-phenyl)-methyl)-3-tert-butylurea] was 133 nM.
`O=C(Nc1cccnc1)N[C@H](c1cccc(C(F)(F)F)c1)c1ccc(C(F)(F)F)c(F)c1` [Example 117, (R)-1-((3-fluoro-4-(trifluoro-methyl)-phenyl)(3-(trifluoro-methyl)-phenyl)-methyl)-3-(pyridin-3-yl)-urea (2,2,2-trifluoro-acetate)]: the concentration for half-maximal inhibition (IC50) is 1750 nM.
For `COC(=O)c1ccccc1NC(=O)N[C@@H](c1ccc(C(F)(F)F)cc1)c1ncccc1F` [Example 118, (S)-methyl 2-(3-((3-fluoro-pyridin-2-yl)-(4-(trifluoro-methyl)-phenyl)-methyl)-ureido)-benzoate], the IC50 was determined as 162 nM.
The value for `O=C(Nc1cccnc1)N[C@@H](c1ccc(C(F)(F)F)cc1)c1cnccc1C(F)(F)F` [Example 119, (S)-1-(pyridin-3-yl)-3-((4-(trifluoro-methyl)-phenyl)(4-(trifluoro-methyl)-pyridin-3-yl)-methyl)urea bis(2,2,2-trifluoro-acetate)] was 375 nM; that for `O=C(Nc1cccnc1)NC(c1ccc(C(F)(F)F)cc1)c1ccncc1Br` (stereo not drawn) [Example 120, 1-((3-bromopyridin-4-yl)(4-(trifluoro-methyl)-phenyl)-methyl)-3-(pyridin-3-yl)-urea (2,2,2-trifluoro-acetate)] was 2850 nM.
Consider `O=C(Nc1cccnc1)N[C@@H](c1ccc(C(F)(F)F)c(F)c1)c1ccccc1C(F)(F)F` [Example 121, (S)-1-((3-fluoro-4-(trifluoro-methyl)-phenyl)(2-(trifluoro-methyl)-phenyl)-methyl)-3-(pyridin-3-yl)-urea], for which the IC50 worked out at 84 nM.
As to `FC(F)(F)c1ccc([C@H](NC(=S)Nc2cccnc2)c2ncccc2C(F)(F)F)cc1` [Example 122, (S)-1-(pyridin-3-yl)-3-((4-(trifluoro-methyl)-phenyl)(3-(trifluoro-methyl)-pyridin-2-yl)-methyl)-thiourea], the IC50 was determined as 221 nM.
For `CC(C)(C)NC(=S)N[C@@H](c1ccc(C(F)(F)F)cc1)c1ncccc1C(F)(F)F` [Example 123, (S)-1-tert-butyl-3-((4-(trifluoro-methyl)-phenyl)(3-(trifluoro-methyl)-pyridin-2-yl)-methyl)-thiourea], the IC50 was 190 nM.
As to `O=C(Nc1cccc(I)c1)N[C@@H](c1ccc(C(F)(F)F)cc1)c1ncccc1C(F)(F)F` [Example 124, (S)-1-(3-iodophenyl)-3-((4-(trifluoro-methyl)-phenyl)(3-(trifluoro-methyl)-pyridin-2-yl)-methyl)urea (2,2,2-trifluoro-acetate)], the IC50 worked out at 708 nM.
Take `O=C(NCc1ccc(Br)cc1)N[C@@H](c1ccc(C(F)(F)F)cc1)c1ncccc1C(F)(F)F` [Example 125, (S)-1-(4-bromobenzyl)-3-((4-(trifluoro-methyl)-phenyl)(3-(trifluoro-methyl)-pyridin-2-yl)-methyl)urea (2,2,2-trifluoro-acetate)]: the IC50 was determined as 561 nM.
For the compound `CCOc1cccc(NC(=O)N[C@@H](c2ccc(C(F)(F)F)cc2)c2ncccc2C(F)(F)F)c1` [Example 126, (S)-1-(3-ethoxyphenyl)-3-((4-(trifluoro-methyl)-phenyl)(3-(trifluoro-methyl)-pyridin-2-yl)-methyl)urea (2,2,2-trifluoro-acetate)], the IC50 came out at 3140 nM.
